How the values were obtained:
OVCAR-3 = test: cells; conditions: Homo sapiens
A498 = test: NCI-60 anticancer screen (SRB; single dose and five doses); conditions: Homo sapiens
NCI-H322M = test: as above; conditions: Homo sapiens
NCI-H460 = test: as above; conditions: Homo sapiens
HL-60(TB) = test: as above; conditions: Homo sapiens
786-0 = test: as above; conditions: Homo sapiens
ACHN = test: as above; conditions: Homo sapiens
MOLT-4 = test: as above; conditions: Homo sapiens
NCI-H226 = test: as above; conditions: Homo sapiens
SF-268 = test: as above; conditions: Homo sapiens
SNB-75 = test: as above; conditions: Homo sapiens, SNB-75, 48 h, read-out: Growth Percentage
RXF 393 = test: as above; conditions: Homo sapiens
SW-620 = test: as above; conditions: Homo sapiens
PC-3 = test: as above; conditions: Homo sapiens
SN12C = test: as above; conditions: Homo sapiens
MALME-3M = test: as above; conditions: Homo sapiens
COLO 205 = test: as above; conditions: Homo sapiens
BT-549 = test: as above; conditions: Homo sapiens
SK-MEL-2 = test: as above; conditions: Homo sapiens
A549/ATCC = test: as above; conditions: Homo sapiens
NCI-H522 = test: as above; conditions: Homo sapiens
M14 = test: as above; conditions: Homo sapiens
HCT-15 = test: as above; conditions: Homo sapiens
MDA-MB-468 = test: as above; assay type: cell-based, human
In short: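 NCI panel of about 60 human tumor cell lines treated with compound at a single concentration (10μM) for 48 h. Growth measured by SRB protein staining and expressed as percent growth of treated versus untreated control cells.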

UACC-257 = test: as above; conditions: Homo sapiens
[1] = 48 h, read-out: Growth Percentage

## Cc1[nH]c(=S)sc1C(=O)/C=C/c1ccc(F)cc1 [2c, (E)-3-(4-Fluorophenyl)-1-(4-Methyl-2-Thioxo-2,3-Dihydrothiazol-5-yl)Prop-2-En-1-One]
OVCAR-3; OVCAR-3
  GI50: 2.42 µM
OVCAR-3; OVCAR-3, 48 h, read-out: Growth Percentage
  activity at 10 µM: -10.9%
OVCAR-3; OVCAR-3, read-out: LC50
  CC50: 24.5 µM
OVCAR-3; OVCAR-3, read-out: TGI
  IC (TGI): 6.81 µM
A498; A498
  GI50: 13.6 µM
A498; A498, 48 h, read-out: Growth Percentage, A498, dose of 10 μM
  activity at 10 µM: 115%
A498; A498, read-out: LC50
  CC50: 52.6 µM
A498; A498, read-out: TGI
  IC (TGI): 26.8 µM
NCI-H322M
  GI50: 4.1 µM
NCI-H322M; [1]
  activity at 10 µM: 64%
NCI-H322M; read-out: LC50
  CC50: 44.8 µM
NCI-H322M; read-out: TGI
  IC (TGI): 17.9 µM
NCI-H460; NCI-H460
  GI50: 15.2 µM
NCI-H460; NCI-H460, 48 h, read-out: Growth Percentage
  activity at 10 µM: 39.3%
NCI-H460; NCI-H460, read-out: LC50
  CC50: 83.3 µM
NCI-H460; NCI-H460, read-out: TGI
  IC (TGI): 35.6 µM
HL-60(TB); HL-60
  GI50: 2.83 µM
HL-60(TB); HL-60, 48 h, read-out: Growth Percentage
  activity at 10 µM: 13%
HL-60(TB); HL-60, read-out: LC50
  CC50: > 100 µM
HL-60(TB); HL-60, read-out: TGI
  IC (TGI): 32.2 µM
786-0; 786-0
  GI50: 4.59 µM
786-0; 786-0, 48 h, read-out: Growth Percentage
  activity at 10 µM: 37.3%
786-0; 786-0, read-out: LC50
  CC50: 47.1 µM
786-0; 786-0, read-out: TGI
  IC (TGI): 17.6 µM
ACHN
  GI50: 7.02 µM
ACHN; [1]
  activity at 10 µM: 47.2%
ACHN; read-out: LC50
  CC50: 44.3 µM
ACHN; read-out: TGI
  IC (TGI): 19.6 µM
MOLT-4; MOLT-4
  GI50: 16.7 µM
MOLT-4; MOLT-4, 48 h, read-out: Growth Percentage
  activity at 10 µM: 58.7%
MOLT-4; MOLT-4, read-out: LC50
  CC50: > 100 µM
MOLT-4; MOLT-4, read-out: TGI
  IC (TGI): 64.3 µM
NCI-H226; NCI-H226
  GI50: 5.27 µM
NCI-H226; NCI-H226, 48 h, read-out: Growth Percentage
  activity at 10 µM: 67.1%
NCI-H226; NCI-H226, read-out: LC50
  CC50: > 100 µM
NCI-H226; NCI-H226, read-out: TGI
  IC (TGI): 27.6 µM
SF-268; SF-268
  GI50: 13 µM
SF-268; SF-268, 48 h, read-out: Growth Percentage
  activity at 10 µM: 58.6%
SF-268; SF-268, read-out: LC50
  CC50: 63.1 µM
SF-268; SF-268, read-out: TGI
  IC (TGI): 28.7 µM
SNB-75
  activity at 10 µM: 36.5%
RXF 393; RXF 393
  GI50: 3.02 µM
RXF 393; RXF 393, 48 h, read-out: Growth Percentage
  activity at 10 µM: 23.2%
RXF 393; RXF 393, read-out: LC50
  CC50: 37.2 µM
RXF 393; RXF 393, read-out: TGI
  IC (TGI): 13 µM
SW-620; SW-620
  GI50: 3.37 µM
SW-620; SW-620, 48 h, read-out: Growth Percentage
  activity at 10 µM: 13.8%
SW-620; SW-620, read-out: LC50
  CC50: 49.3 µM
SW-620; SW-620, read-out: TGI
  IC (TGI): 15 µM
PC-3; PC-3
  GI50: 5.82 µM
PC-3; PC-3, 48 h, read-out: Growth Percentage
  activity at 10 µM: 43.4%
PC-3; PC-3, read-out: LC50
  CC50: > 100 µM
PC-3; PC-3, read-out: TGI
  IC (TGI): 29.7 µM
SN12C
  GI50: 3.95 µM
SN12C; [1]
  activity at 10 µM: 24.1%
SN12C; read-out: LC50
  CC50: 46.7 µM
SN12C; read-out: TGI
  IC (TGI): 17 µM
MALME-3M
  GI50: 12.4 µM
MALME-3M; [1]
  activity at 10 µM: 85.8%
MALME-3M; read-out: LC50
  CC50: 60.9 µM
MALME-3M; read-out: TGI
  IC (TGI): 27.5 µM
COLO 205; COLO 205
  GI50: 15.4 µM
COLO 205; COLO 205, read-out: LC50
  CC50: 80.4 µM
COLO 205; COLO 205, read-out: TGI
  IC (TGI): 35.2 µM
BT-549; BT-549
  GI50: 2.34 µM
BT-549; BT-549, 48 h, read-out: Growth Percentage
  activity at 10 µM: 23.2%
BT-549; BT-549, read-out: TGI
  IC (TGI): 8.27 µM
SK-MEL-2; SK-MEL-2
  GI50: 11.6 µM
SK-MEL-2; SK-MEL-2, 48 h, read-out: Growth Percentage
  activity at 10 µM: 56.6%
SK-MEL-2; SK-MEL-2, read-out: LC50
  CC50: 50.1 µM
SK-MEL-2; SK-MEL-2, read-out: TGI
  IC (TGI): 24.1 µM
A549/ATCC; A549
  GI50: 12.4 µM
A549/ATCC; A549, 48 h, read-out: Growth Percentage
  activity at 10 µM: 56%
A549/ATCC; A549, read-out: LC50
  CC50: 57.7 µM
A549/ATCC; A549, read-out: TGI
  IC (TGI): 26.8 µM
NCI-H522; NCI-H522
  GI50: 8.63 µM
NCI-H522; NCI-H522, 48 h, read-out: Growth Percentage
  activity at 10 µM: 44.2%
NCI-H522; NCI-H522, read-out: LC50
  CC50: 46.8 µM
NCI-H522; NCI-H522, read-out: TGI
  IC (TGI): 21.2 µM
M14; M14
  GI50: 6.97 µM
M14; M14, 48 h, read-out: Growth Percentage
  activity at 10 µM: 49.6%
M14; M14, read-out: TGI
  IC (TGI): 22.2 µM
HCT-15; HCT-15
  GI50: 3.27 µM
HCT-15; HCT-15, 48 h, read-out: Growth Percentage
  activity at 10 µM: 14.7%
HCT-15; HCT-15, read-out: LC50
  CC50: 43.7 µM
HCT-15; HCT-15, read-out: TGI
  IC (TGI): 14.2 µM
MDA-MB-468; Homo sapiens, 48 h, MDA-MB-468, dose of 10 μM, read-out: Growth Percentage
  activity at 10 µM: -4.51%
MDA-MB-468; Homo sapiens, MDA-MB-468, Breast Cancer, five dose
  GI50: 1.93 µM
MDA-MB-468; Homo sapiens, MDA-MB-468, Breast Cancer, five dose, read-out: LC50 (the source's name)
  CC50: 25.3 µM
MDA-MB-468; MDA-MB-468, Breast Cancer, five dose
  TGI: 6.46 µM
UACC-257; UACC-257
  GI50: 12.6 µM
UACC-257; UACC-257, 48 h, read-out: Growth Percentage
  activity at 10 µM: 64.1%
UACC-257; UACC-257, read-out: LC50
  CC50: 56.6 µM
UACC-257; UACC-257, read-out: TGI
  IC (TGI): 26.7 µM

Source: paper PMC11435058, “Synthesis of New Thiazole-Privileged Chalcones as Tubulin Polymerization Inhibitors with Potential Anticancer Activities” (Pharmaceuticals, 2024)
